Assay results reported in ChEMBL document CHEMBL4177704, “Synthesis and biological evaluation of water-soluble derivatives of chiral gossypol as HIV fusion inhibitors targeting gp41” (Bioorg Med Chem Lett, 2018).
Values joined by “and” are separate entries in the source; they are usually repeats but may differ in a detail not shown here. Identical values can stand only once. Active and inactive are the calls of the source. The rule behind the calls is not given here.

Key:
[1] = system: Human immunodeficiency virus 1; test: Antiviral activity against HIV-1 3B infected in human TZM-bl cells treated for 2 hrs followed by compound washout measured after 2 days by luciferase reporter assay; assay type: functional, organism-based
[2] = system: TZM; test: (§1) Cytotoxicity against human TZM-bl cells after 72 hrs by MTT assay; assay type: cell-based; details: tzm, 72 h
[3] = Selectivity index, ratio of CC50 for human TZM-bl cells to IC50 for HIV-1 3B infected in human TZM-bl cells; assay type: toxicity, cell-based
[4] = system: Human immunodeficiency virus 1; test: Antiviral activity against X4R5 tropic HIV-1 93TH051 expressing Env subtype E infected in human PBMC assessed as reduction in p24 expression levels after 4 days by ELISA; assay type: functional, organism-based; details: Human immunodeficiency virus 1, 93TH051, PBMC, 96 h
[5] = biological target: Envelope glycoprotein gp160 (Human immunodeficiency virus 1, UniProt Q6QLK5); test: Inhibition of HIV gp41 6-helix bundle formation preincubated with C34 and N36 for 30 mins
[6] = Spermicidal activity against mouse sperm assessed as motility of sperm at 100 uM after 1 hr by hemocytometric analysis; assay type: ADME
[7] = system: Human immunodeficiency virus 1; test: Antiviral activity against HIV-1 3B infected in human TZM-bl cells at 10 uM treated simultaneously with viral infection for 2 hrs followed by compound washout measured after 2 days by luciferase reporter assay; assay type: functional, organism-based
[8] = system: Human immunodeficiency virus 1; test: Antiviral activity against HIV-1 3B infected in human TZM-bl cells at 10 uM treated 2 to 6 hrs post infection for 2 hrs followed by compound washout measured after 2 days by luciferase reporter assay; assay type: functional, organism-based
[9] = as §1; assay type: cell-based; details: TZM-bl cells
[10] = Human immunodeficiency virus 1, 3B, TZM-bl

Chain of Envelope glycoprotein gp160 (Q6QLK5 whole entry): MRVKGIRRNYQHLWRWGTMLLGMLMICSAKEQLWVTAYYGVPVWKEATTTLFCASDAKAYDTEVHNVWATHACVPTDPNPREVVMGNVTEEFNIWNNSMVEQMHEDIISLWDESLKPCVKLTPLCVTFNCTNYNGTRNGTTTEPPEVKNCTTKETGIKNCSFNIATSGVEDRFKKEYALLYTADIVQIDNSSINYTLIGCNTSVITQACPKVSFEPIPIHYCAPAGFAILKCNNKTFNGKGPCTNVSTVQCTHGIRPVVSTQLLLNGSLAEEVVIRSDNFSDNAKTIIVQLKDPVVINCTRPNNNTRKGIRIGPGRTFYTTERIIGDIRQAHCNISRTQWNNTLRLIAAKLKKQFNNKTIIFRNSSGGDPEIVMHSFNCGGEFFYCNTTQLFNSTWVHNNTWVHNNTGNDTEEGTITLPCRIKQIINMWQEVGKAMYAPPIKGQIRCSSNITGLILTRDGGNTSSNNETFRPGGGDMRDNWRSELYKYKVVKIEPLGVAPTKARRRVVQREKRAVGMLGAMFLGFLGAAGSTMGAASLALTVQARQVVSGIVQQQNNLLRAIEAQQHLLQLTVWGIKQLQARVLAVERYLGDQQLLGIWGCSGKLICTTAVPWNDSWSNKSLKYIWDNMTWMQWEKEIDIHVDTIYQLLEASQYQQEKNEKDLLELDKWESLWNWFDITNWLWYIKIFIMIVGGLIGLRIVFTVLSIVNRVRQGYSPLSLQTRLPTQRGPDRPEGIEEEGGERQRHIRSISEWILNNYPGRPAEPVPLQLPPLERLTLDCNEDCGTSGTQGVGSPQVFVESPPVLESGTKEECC

Molecule: Cc1cc2c(c(O)c1-c1c(C)cc3c(c1O)/C(=C/NC(C)C(=O)NC(C)C(=O)[O-])C(=O)C(O)=C3C(C)C)/C(=C/NC(C)C(=O)NC(C)C(=O)[O-])C(=O)C(O)=C2C(C)C.[Na+].[Na+] (single isomer, unassigned; (-))
- IC50 [1]: 1.43 µM
- CC50 [2]: 35.7 µM
- Ratio CC50/IC50 [3]: 24.99
- IC50 [4]: 1.72 µM
- IC50 [5]: 7.87 µM
- Activity [6]: Non-Toxic

Molecule: Cc1cc2c(c(O)c1-c1c(C)cc3c(c1O)/C(=C/NC(C)S(=O)(=O)[O-])C(=O)C(O)=C3C(C)C)/C(=C/NC(C)S(=O)(=O)[O-])C(=O)C(O)=C2C(C)C.[Na+].[Na+] (single isomer, unassigned; (-))
- IC50 [1]: 1.17 µM
- CC50 [2]: 37.8 µM
- selectivity ratio ([3]; TZM-bl cells, read-out: Ratio CC50/IC50): 32.3
- IC50 [4]: 1.56 µM
- IC50 [5]: 7.34 µM
- Activity [6]: Non-Toxic

Molecule: Cc1cc2c(c(O)c1-c1c(C)cc3c(c1O)/C(=C/NC(C)C(=O)NC(C)C(=O)O)C(=O)C(O)=C3C(C)C)/C(=C/NC(C)C(=O)NC(C)C(=O)O)C(=O)C(O)=C2C(C)C (single isomer, unassigned; (-))
- Activity [7]: Active
- Activity [8]: inactive

Molecule: Cc1cc2c(c(O)c1-c1c(C)cc3c(c1O)/C(=C/NC(C)S(=O)(=O)O)C(=O)C(O)=C3C(C)C)/C(=C/NC(C)S(=O)(=O)O)C(=O)C(O)=C2C(C)C (single isomer, unassigned; (-))
- Activity [7]: Active
- Activity [8]: inactive

Molecule: Cc1cc2c(c(O)c1-c1c(C)cc3c(c1O)/C(=C/N[C@@H](CC(C)C)C(=O)[O-])C(=O)C(O)=C3C(C)C)/C(=C/N[C@@H](CC(C)C)C(=O)[O-])C(=O)C(O)=C2C(C)C.[Na+].[Na+] (stereo in doubt; (+)-10b)
- IC50 [1]: 7.16 µM
- CC50 at 72 h [9]: 60.1 µM
- Ratio CC50/IC50 [3]: 8.4

Molecule: CC[C@H](C)[C@H](N/C=C1\C(=O)C(O)=C(C(C)C)c2cc(C)c(-c3c(C)cc4c(c3O)/C(=C/N[C@H](C(=O)[O-])[C@@H](C)CC)C(=O)C(O)=C4C(C)C)c(O)c21)C(=O)[O-].[Na+].[Na+] (stereo in doubt; (+)-11b)
- IC50 [1]: 4.22 µM
- CC50 at 72 h [9]: 73.9 µM
- Ratio CC50/IC50 [3]: 17.5

Molecule: Cc1cc2c(c(O)c1-c1c(C)cc3c(c1O)/C(=C/N[C@@H](Cc1c[nH]c4ccccc14)C(=O)[O-])C(=O)C(O)=C3C(C)C)/C(=C/N[C@@H](Cc1c[nH]c3ccccc13)C(=O)[O-])C(=O)C(O)=C2C(C)C.[Na+].[Na+] (stereo in doubt; (+)-12b)
- IC50 [1]: 9.06 µM
- CC50 at 72 h [9]: 57 µM
- Ratio CC50/IC50 [3]: 6.29

Molecule: Cc1cc2c(c(O)c1-c1c(C)cc3c(c1O)/C(=C/N[C@@H](Cc1ccccc1)C(=O)[O-])C(=O)C(O)=C3C(C)C)/C(=C/N[C@@H](Cc1ccccc1)C(=O)[O-])C(=O)C(O)=C2C(C)C.[Na+].[Na+] (stereo in doubt; (+)-13b)
- IC50 [1, 10]: 8.21 µM
- CC50 at 72 h [9]: 53.8 µM
- Ratio CC50/IC50 [3]: 6.55

Molecule: Cc1cc2c(c(O)c1-c1c(C)cc3c(c1O)/C(=C/N[C@@H]1[C@@H](O)[C@H](O)[C@@H](CO)O[C@H]1O)C(=O)C(O)=C3C(C)C)/C(=C/N[C@@H]1[C@@H](O)[C@H](O)[C@@H](CO)O[C@H]1O)C(=O)C(O)=C2C(C)C (stereo in doubt; (-)-1a) [listing 1 of 2 here]
- IC50 [1]: 0.72 µM
- CC50 [2]: 23.1 µM
- Ratio CC50/IC50 [3]: 32.12
- IC50 [4]: 1.22 µM
- IC50 [5]: 6.36 µM
- Activity [6]: Non-Toxic

Molecule: Cc1cc2c(c(O)c1-c1c(C)cc3c(c1O)/C(=C/N[C@@H]1[C@@H](O)[C@H](O)[C@@H](CO)O[C@H]1O)C(=O)C(O)=C3C(C)C)/C(=C/N[C@@H]1[C@@H](O)[C@H](O)[C@@H](CO)O[C@H]1O)C(=O)C(O)=C2C(C)C (stereo in doubt; (-)-1a) [listing 2 of 2 here]
- Activity [7]: Active
- Activity [8]: inactive

Molecule: Cc1cc2c(C(C)C)c(O)c(O)c(C=O)c2c(O)c1-c1c(C)cc2c(C(C)C)c(O)c(O)c(C=O)c2c1O [GOSSYPOL]
- CC50 [2]: 18.1 µM and 5.22 µM
- Activity [6]: Toxic

Molecule: Cc1cn([C@H]2C[C@H](N=[N+]=[N-])[C@@H](CO)O2)c(=O)[nH]c1=O [ZIDOVUDINE]
- IC50 [1, 10]: 0.0028 µM
- Activity [7]: Active
- Activity [8]: inactive

Molecule: enfuvirtide
- IC50 [1, 10]: 0.0905 µM
- Activity [7]: Active
- Activity [8]: inactive
